Results reported in PubChem BioAssay AID2060623 (Molecular Pharmacology Branch, DTP, NCI, 2025).

System: 227483-062-R1-J1-PDC complex spheroids with HUVEC/MSC, viability
Assay: Anticancer human tumor 227483-062-R1-J1-PDC patient-derived pancreatic carcinoma cell line growth inhibition [CLK]
Conditions: for IC50: curve of first compound; for viability, T/C: stronger effect = lower value
Summary of the method: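 Multi-cell-type spheroids combined patient-derived tumor cells with HUVEC endothelial cells and human mesenchymal stem cells. Paired agents were dosed in half-log steps down from about clinical Cmax, or from 10 microM where Cmax was unknown.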
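Also: spheroids exposed to compounds for seven days before readout.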
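For viability, T/C in this document: percent of DMSO vehicle control luminescence as 100% viability.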

C=CC(=O)N1CCN(c2nc(=O)n(-c3c(C)ccnc3C(C)C)c3nc(-c4c(O)cccc4F)c(F)cc23)C(C)C1 (configuration not stated) + CN1CCN(c2cc(C(=O)Nc3cc4cc(-c5cnn(C)c5)ccc4cn3)ccn2)CC1
IC50 (second compound 0.0316 µM): > 10000 nM
IC50 (second compound 0.1 µM): > 10000 nM
IC50 (second compound 0.316 µM): < 31.6 nM
IC50 (second compound 1 µM): < 31.6 nM
IC50 (second compound 3.16 µM): < 31.6 nM
IC50 (second compound 10 µM): < 31.6 nM
viability, T/C (second compound 0.0316 µM, first compound 0.0316 µM): 90.4%
viability, T/C (second compound 0.0316 µM, first compound 0.1 µM): 97.5%
viability, T/C (second compound 0.0316 µM, first compound 0.316 µM): 94.7%
viability, T/C (second compound 0.0316 µM, first compound 1 µM): 104%
viability, T/C (second compound 0.0316 µM, first compound 3.16 µM): 104%
viability, T/C (second compound 0.0316 µM, first compound 10 µM): 85.5%
viability, T/C (second compound 0.1 µM, first compound 0.0316 µM): 63.2%
viability, T/C (second compound 0.1 µM, first compound 0.1 µM): 68.1%
viability, T/C (second compound 0.1 µM, first compound 0.316 µM): 63.1%
viability, T/C (second compound 0.1 µM, first compound 1 µM): 76.8%
viability, T/C (second compound 0.1 µM, first compound 3.16 µM): 66.4%
viability, T/C (second compound 0.1 µM, first compound 10 µM): 52.7%
viability, T/C (second compound 0.316 µM, first compound 0.0316 µM): 6.84%
viability, T/C (second compound 0.316 µM, first compound 0.1 µM): 6.59%
viability, T/C (second compound 0.316 µM, first compound 0.316 µM): 5.21%
viability, T/C (second compound 0.316 µM, first compound 1 µM): 7.81%
viability, T/C (second compound 0.316 µM, first compound 3.16 µM): 5.13%
viability, T/C (second compound 0.316 µM, first compound 10 µM): 3.55%
viability, T/C (second compound 1 µM, first compound 0.0316 µM): 3.36%
viability, T/C (second compound 1 µM, first compound 0.1 µM): 2.83%
viability, T/C (second compound 1 µM, first compound 0.316 µM): 2.54%
viability, T/C (second compound 1 µM, first compound 1 µM): 3.57%
viability, T/C (second compound 1 µM, first compound 3.16 µM): 6.05%
viability, T/C (second compound 1 µM, first compound 10 µM): 3.88%
viability, T/C (second compound 3.16 µM, first compound 0.0316 µM): 3.58%
viability, T/C (second compound 3.16 µM, first compound 0.1 µM): 3.65%
viability, T/C (second compound 3.16 µM, first compound 0.316 µM): 5.09%
viability, T/C (second compound 3.16 µM, first compound 1 µM): 5.88%
viability, T/C (second compound 3.16 µM, first compound 3.16 µM): 6.54%
viability, T/C (second compound 3.16 µM, first compound 10 µM): 6.07%
viability, T/C (second compound 10 µM, first compound 0.0316 µM): 3.12%
viability, T/C (second compound 10 µM, first compound 0.1 µM): 2.35%
viability, T/C (second compound 10 µM, first compound 0.316 µM): 4.11%
viability, T/C (second compound 10 µM, first compound 1 µM): 3.93%
viability, T/C (second compound 10 µM, first compound 3.16 µM): 6.11%
viability, T/C (second compound 10 µM, first compound 10 µM): 3.94%
